Assay results reported in PubChem BioAssay (NCI).
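Where inhibition never reached the appropriate level, the endpoint shown equals the highest concentration tested. Otherwise, values were interpolated linearly from a five-concentration, 48-hour dose response in 96-well plates. TGI is the concentration that stops growth completely.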

Tests used:
Assay in all cases: NCI anticancer screen, dose series, 48 h
A549 NSCLC = tested on: A549 NSCLC
ACHN renal = tested on: ACHN renal
CAKI-1 renal = tested on: CAKI-1 renal
EKVX NSCLC = tested on: EKVX NSCLC
HL-60(TB) leukemia = tested on: HL-60(TB) leukemia
HOP-62 NSCLC = tested on: HOP-62 NSCLC
HS 578T breast = tested on: HS 578T breast
LOX IMVI melanoma = tested on: LOX IMVI melanoma
NCI-H23 lung = tested on: NCI-H23 lung
OVCAR-8 ovarian = tested on: OVCAR-8 ovarian
PC-3 prostate = tested on: PC-3 prostate
SF-539 CNS = tested on: SF-539 CNS
SK-OV-3 ovarian = tested on: SK-OV-3 ovarian
SR leukemia = tested on: SR leukemia
SW-620 colon = tested on: SW-620 colon
T-47D breast = tested on: T-47D breast
U251 CNS = tested on: U251 CNS
UACC-257 melanoma = tested on: UACC-257 melanoma
HOP-92 NSCLC = tested on: HOP-92 NSCLC
NCI-H226 lung = tested on: NCI-H226 lung

| Compound | TGI (A549 NSCLC) [µM] | TGI (ACHN renal) [µM] | TGI (CAKI-1 renal) [µM] | TGI (EKVX NSCLC) [µM] | TGI (HL-60(TB) leukemia) [µM] | TGI (HOP-62 NSCLC) [µM] | TGI (HS 578T breast) [µM] | TGI (LOX IMVI melanoma) [µM] | TGI (NCI-H23 lung) [µM] | TGI (OVCAR-8 ovarian) [µM] | TGI (PC-3 prostate) [µM] | TGI (SF-539 CNS) [µM] | TGI (SK-OV-3 ovarian) [µM] | TGI (SR leukemia) [µM] | TGI (SW-620 colon) [µM] | TGI (T-47D breast) [µM] | TGI (U251 CNS) [µM] | TGI (UACC-257 melanoma) [µM] | TGI (HOP-92 NSCLC) [µM] | TGI (NCI-H226 lung) [µM] |
| --- | --- | --- | --- | --- | --- | --- | --- | --- | --- | --- | --- | --- | --- | --- | --- | --- | --- | --- | --- | --- |
| CCSc1nc(N)c2c(-c3ccccc3)c3c(nc2n1)CCC3 | > 100 | > 100 | > 100 | > 100 | > 100 | > 100 | > 100 | > 100 | > 100 | > 100 | > 100 | 53 | > 100 | > 100 | > 100 | > 100 | > 100 | > 100 |  |  |
| CC(=O)O[C@H]1[C@@H](OC(C)=O)C(C)(C)/C=C/[C@H](C)C(=O)[C@@]2(OC(C)=O)C[C@@](C)(OC(C)=O)[C@H](OC(C)=O)[C@@H]2[C@H]2OC(=O)CC[C@@]2(OC(=O)c2ccccc2)[C@@H]1OCC(C)C |  | > 100 | > 100 | > 100 | > 100 | > 100 | 65.4 | > 100 | > 100 | > 100 | > 100 | > 100 | > 100 |  | > 100 | > 100 | > 100 | > 100 | > 100 | > 100 |
| NC1(C(=O)O)CCCC1 | > 625 |  | > 625 | > 625 | > 625 | > 625 |  | > 625 | > 625 | > 625 |  | > 625 | > 625 |  | > 625 |  | > 625 | > 625 | > 625 | > 625 |
| CSCCC(NC(=O)OCc1ccccc1)NC(=O)OCc1ccccc1 | > 100 | > 100 | > 100 |  |  | > 100 | > 100 | > 100 | > 100 | > 100 | > 100 |  | > 100 | > 100 | > 100 | > 100 | > 100 | > 100 | > 100 | > 100 |
| COc1ccc(Oc2nc(C#CC(C)(C)O)nc(Oc3ccc(OC)cc3)n2)cc1 | 28.4 | 3.13 | 12.5 | 30.7 | 3.52 | 62.1 | 82.7 | 3 | 21.8 | 13.7 | 7.69 | 22.5 | 36 | 3.79 | 3.47 | > 100 | 15.6 | 38.2 |  |  |
